Data set [1] is described as follows: pH of the aqueous solution. Type of data set: physicochemical. To be noted: for pH: in solution in water.
The nature of data set [2]: physchem. Conditions: water, Solubility in H2O.

The term solubility denotes the concentration that dissolves in the medium under given conditions. A high value points to a readily soluble substance.

Where a name gives a salt, the structure may show the parent alone.

`CN1CCN(c2c(F)cc3c(=O)c(C(=O)O)cn4c3c2SCC4)CC1` [Salt with malonic acid] came in with a water solubility of 3 mg/mL. In data set [1], the pH worked out at 4.22.

With `CN1CCN(c2c(F)cc3c(=O)c(C(=O)O)cn4c3c2SCC4)CC1` [Salt with citric acid], the water solubility worked out at 2.7 mg/mL. The pH in data set [1] is reported as 3.99-4.00.

`CN1CCN(c2c(F)cc3c(=O)c(C(=O)O)cn4c3c2SCC4)CC1` [Salt with L-tartaric acid] yielded a water solubility of 6 mg/mL. Besides, in data set [1], the pH was 4.09-4.10.

`CN1CCN(c2c(F)cc3c(=O)c(C(=O)O)cn4c3c2SCC4)CC1` [Salt with gluconic acid] had a water solubility of 360 mg/mL. The “pH values (in words)” value in data set [1] (in solution) is reported as “particularly high pH”. Moreover, the pH in data set [1] is listed as 5.07-5.10. Moreover, the pH entry in data set [1] (listed as gluconate) is “about 5”. This compound came in with a solubility in data set [2] of 360 mg/mL.

With `CN1CCN(c2c(F)cc3c(=O)c(C(=O)O)cn4c3c2SCC4)CC1` [9-fluoro-10[N-(4'-methyl)piperazinyl]-7-oxo-2,3-dihydro-7H-pyrido[1,2,3 de][1,4]benzothiazine-6-carboxylic acid hydrochloride, reference compound], the water solubility stood at 8 mg/mL.

Compound `CN1CCN(c2c(F)cc3c(=O)c(C(=O)O)cn4c3c2SCC4)CC1` [methanesulphonate, 9-fluoro-10[N-(4'-methyl)piperazinyl]-7-oxo-2,3-dihydro-7H-pyrido[1,2,3 de][1,4]benzothiazine-6-carboxylic acid methanesulphonate] had a water solubility of 87 mg/mL. Moreover, the pH entry in data set [1] is “approximately 3”.

Values taken from patent publication US4910196A, “Highly soluble antibacterially active organic salts of pyridobenzothiazines” (Mediolanum Farmaceutici Srl, priority 1986, dated 1990).
